# Assay results as given in patent US10562891B2, “Quinazolinones as PARP14 inhibitors” (Ribon Therapeutics Inc., priority 2017, dated 2020).
# Counter-ions that a name gives are not always drawn.
# Target: catalytic domain of human PARP14 (Homo sapiens (Human), UniProt Q460N5)
# Assay: Enzymatic assay for inhibition of PARP14 (DELFIA, auto-modification with biotin-NAD)
# Format: biochemical
# Conditions: auto-modification of PARP14 by biotin-NAD, 50 nM PARP14, 3 μM biotin-NAD
# How it was run: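 His-TEV-tagged PARP14 catalytic domain (50 nM) preincubated with compound 30 min at 25 °C, then auto-modified with 3 μM biotin-NAD for 3 h at 25 °C in HEPES pH 8 buffer with DTT. IC50 from 4-parameter fit, rucaparib and DMSO as controls.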
# catalytic domain of human PARP14, sequence (Q460N5 1611-1801): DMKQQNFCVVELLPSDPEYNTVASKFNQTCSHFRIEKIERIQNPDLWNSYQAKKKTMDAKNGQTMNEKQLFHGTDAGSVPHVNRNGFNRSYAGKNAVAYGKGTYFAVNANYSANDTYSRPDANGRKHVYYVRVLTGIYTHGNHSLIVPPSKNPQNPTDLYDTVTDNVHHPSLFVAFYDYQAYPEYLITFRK
row,Structure (SMILES),IC50 [µM]
1,"O=c1[nH]c(CS[C@H]2CC[C@H](CO)CC2)nc2cc(Nc3cccnc3)ccc12 [Example 107, 2-(((trans-4-(Hydroxymethyl)cyclohexyl)thio)methyl)-7-(pyridin-3-ylamino) quinazolin-4(3H)-one]",< 1
2,"O=c1[nH]c(CSC2CCOCC2)nc2cc(NC3CCCCC3)ccc12 [Example 108, 7-(Cyclohexylamino)-2-(((tetrahydro-2H-pyran-4-yl)thio)methyl)quinazolin-4(3H)-one]",< 1
3,"CN(C)c1ccc2c(=O)[nH]c(CSC3CCOCC3)nc2c1 [Example 109, 7-(Dimethylamino)-2-(((tetrahydro-2H-pyran-4-yl)thio)methyl)quinazolin-4(3H)-one]",1 to 10
4,"CNc1ccc2c(=O)[nH]c(CSC3CCOCC3)nc2c1 [Example 110, 7-(Methylamino)-2-(((tetrahydro-2H-pyran-4-yl)thio)methyl)quinazolin-4(3H)-one]",1 to 10
5,"O=c1[nH]c(CSC2CCOCC2)nc2cc(N3CCOCC3)ccc12 [Example 111, 7-Morpholino-2-(((tetrahydro-2H-pyran-4-yl)thio)methyl)quinazolin-4(3H)-one]",1 to 10
6,"CN1CCN(c2ccc3c(=O)[nH]c(CSC4CCOCC4)nc3c2)CC1 [Example 112, 7-(4-Methylpiperazin-1-yl)-2-(((tetrahydro-2H-pyran-4-yl)thio)methyl)quinazolin-4(3H)-one]",1 to 10
7,"CN1CCC(Nc2ccc3c(=O)[nH]c(CSC4CCOCC4)nc3c2)CC1 [Example 113, 7-((1-Methylpiperidin-4-yl)amino)-2-(((tetrahydro-2H-pyran-4-yl)thio)methyl)quinazolin-4(3H)-one]",> 10
8,"O=c1[nH]c(CSC2CCOCC2)nc2cc(NC3CCOCC3)ccc12 [Example 114, 7-((Tetrahydro-2H-pyran-4-yl)amino)-2-(((tetrahydro-2H-pyran-4-yl)thio)methyl)quinazolin-4(3H)-one]",1 to 10
9,"O=c1[nH]c(CSC2CCOCC2)nc2cc(NC3CCCC3)ccc12 [Example 115, 7-(Cyclopentylamino)-2-(((tetrahydro-2H-pyran-4-yl)thio)methyl)quinazolin-4(3H)-one]",< 1
10,"CC(C)Nc1ccc2c(=O)[nH]c(CSC3CCOCC3)nc2c1 [Example 116, 7-(Isopropylamino)-2-(((tetrahydro-2H-pyran-4-yl)thio)methyl)quinazolin-4(3H)-one]",< 1
11,"O=c1[nH]c(CSC2CCOCC2)nc2cc(NCc3ccncc3)ccc12 [Example 117, 7-((Pyridin-4-ylmethyl)amino)-2-(((tetrahydro-2H-pyran-4-yl)thio)methyl)quinazolin-4(3H)-one]",1 to 10
12,"O=c1[nH]c(CSC2CCOCC2)nc2cc(NCc3ccccn3)ccc12 [Example 118, 7-((Pyridin-2-ylmethyl)amino)-2-(((tetrahydro-2H-pyran-4-yl)thio)methyl)quinazolin-4(3H)-one]",1 to 10
13,"O=c1[nH]c(CSC2CCOCC2)nc2cc(NCc3ccccc3)ccc12 [Example 119, 7-(Benzylamino)-2-(((tetrahydro-2H-pyran-4-yl)thio)methyl)quinazolin-4(3H)-one]",< 1
14,"CC(Nc1ccc2c(=O)[nH]c(CSC3CCOCC3)nc2c1)c1ccccc1 (centres unmarked) [Example 120, 7-((1-Phenylethyl)amino)-2-(((tetrahydro-2H-pyran-4-yl)thio)methyl)quinazolin-4(3H)-one]",> 10
15,"O=c1[nH]c(CSC2CCOCC2)nc2cc(NC3CCOC3)ccc12 (centres unmarked) [Example 121, 2-(((Tetrahydro-2H-pyran-4-yl)thio)methyl)-7-((tetrahydrofuran-3-yl)amino)quinazolin-4(3H)-one]",< 1
16,"O=c1[nH]c(CSC2CCOCC2)nc2cc(NC3CCC3)ccc12 [Example 122, 7-(Cyclobutylamino)-2-(((tetrahydro-2H-pyran-4-yl)thio)methyl)quinazolin-4(3H)-one]",< 1
17,"O=c1[nH]c(CSC2CCOCC2)nc2cc(NCc3cccnc3)ccc12 [Example 123, 7-((Pyridin-3-ylmethyl)amino)-2-(((tetrahydro-2H-pyran-4-yl)thio)methyl)quinazolin-4(3H)-one]",< 1
18,"O=c1[nH]c(CSC2CCOCC2)nc2cc(NC3CC3)ccc12 [Example 124, 7-(Cyclopropylamino)-2-(((tetrahydro-2H-pyran-4-yl)thio)methyl)quinazolin-4(3H)-one]",< 1
19,"CN(c1ccc2c(=O)[nH]c(CSC3CCOCC3)nc2c1)C1CCCCC1 [Example 125, 7-(Cyclohexyl(methyl)amino)-2-(((tetrahydro-2H-pyran-4-yl)thio)methyl)quinazolin-4(3H)-one]",1 to 10

row,Structure (SMILES),IC50 [µM]
1,"O=c1[nH]c(CSC2CCOCC2)nc2cc(NC3CCCN(Cc4ccccc4)C3)ccc12 (centres unmarked) [Example 126, 7-[(1-Benzyl-3-piperidyl)amino]-2-(tetrahydropyran-4-ylsulfanylmethyl)-3H-quinazolin-4-one]",1 to 10
2,"O=c1[nH]c(CSC2CCOCC2)nc2cc(NC3CCCNC3)ccc12 (centres unmarked) [Example 127, 7-(3-Piperidylamino)-2-(tetrahydropyran-4-ylsulfanylmethyl)-3H-quinazolin-4-one]",> 10
3,"O=c1[nH]c(CSC2CCOCC2)nc2cc(NC3CCN(Cc4ccccc4)CC3)ccc12 [Example 128, 7-((1-Benzylpiperidin-4-yl)amino)-2-(((tetrahydro-2H-pyran-4-yl)thio)methyl) quinazolin-4(3H)-one]",1 to 10
4,"O=c1[nH]c(CSC2CCOCC2)nc2cc(NC3CCNCC3)ccc12 [Example 129, 7-(Piperidin-4-ylamino)-2-(((tetrahydro-2H-pyran-4-yl)thio)methyl) quinazolin-4(3H)-one]",1 to 10
5,"O=c1[nH]c(CSC2CCOCC2)nc2cc(NC3CCNC3)ccc12 (centres unmarked) [Example 130, 7-(Pyrrolidin-3-ylamino)-2-(((tetrahydro-2H-pyran-4-yl)thio)methyl) quinazolin-4(3H)-one]",1 to 10
6,"CC(=O)N1CCC(Nc2ccc3c(=O)[nH]c(CSC4CCOCC4)nc3c2)CC1 [Example 131, 7-((1-Acetylpiperidin-4-yl)amino)-2-(((tetrahydro-2H-pyran-4-yl)thio)methyl) quinazolin-4(3H)-one]",1 to 10
7,"CC(=O)N1CCCC(Nc2ccc3c(=O)[nH]c(CSC4CCOCC4)nc3c2)C1 (centres unmarked) [Example 132, 7-((1-Acetylpiperidin-3-yl)amino)-2-(((tetrahydro-2H-pyran-4-yl)thio)methyl)quinazolin-4(3H)-one]",> 10
8,"CN1CCCC(Nc2ccc3c(=O)[nH]c(CSC4CCOCC4)nc3c2)C1 (centres unmarked) [Example 133, 7-((1-Methylpiperidin-3-yl)amino)-2-(((tetrahydro-2H-pyran-4-yl)thio)methyl)quinazolin-4(3H)-one]",> 10
9,"CC(=O)N1CCC(Nc2ccc3c(=O)[nH]c(CSC4CCOCC4)nc3c2)C1 (centres unmarked) [Example 134, 7-((1-Acetylpyrrolidin-3-yl)amino)-2-(((tetrahydro-2H-pyran-4-yl)thio)methyl)quinazolin-4(3H)-one]",1 to 10
10,"Cc1c(Oc2ccccc2)ccc2c(=O)[nH]c(CSC3CCOCC3)nc12 [Example 135, 8-Methyl-7-phenoxy-2-(((tetrahydro-2H-pyran-4-yl)thio)methyl)quinazolin-4(3H)-one]",> 10
11,"O=c1[nH]c(CS[C@H]2CC[C@H](CO)CC2)nc2cc(NC3CCCCC3)ccc12 [Example 136, 7-(Cyclohexylamino)-2-(((trans-4-(hydroxymethyl)cyclohexyl)thio)methyl) quinazolin-4(3H)-one]",< 1
12,"O=c1[nH]c(CS[C@H]2CC[C@@H](CO)CC2)nc2cc(NC3CCCCC3)ccc12 [Example 137, 7-(Cyclohexylamino)-2-(((cis-4-(hydroxymethyl)cyclohexyl)thio)methyl) quinazolin-4(3H)-one]",< 1
13,"Cc1cccc2c(=O)[nH]c(CSC3CCN(Cc4nccn4C)CC3)nc12 [Example 138, 8-Methyl-2-(((1-((1-methyl-1H-imidazol-2-yl)methyl)piperidin-4-yl)thio)methyl)quinazolin-4(3H)-one bistrifluoroacetate]",< 1
14,"CC(=O)Nc1ccc(CN2CCC(SCc3nc4c(C)cccc4c(=O)[nH]3)CC2)cc1 [Example 139, N-(4-((4-(((8-Methyl-4-oxo-3,4-dihydroquinazolin-2-yl)methyl)thio)piperidin-1-yl)methyl)phenyl)acetamide trifluoroacetate]",< 1
15,"Cc1cccc2c(=O)[nH]c(CSC3CCN(Cc4ccc(N(C)C)cc4)CC3)nc12 [Example 140, 2-(((1-(4-(Dimethylamino)benzyl)piperidin-4-yl)thio)methyl)-8-methylquinazolin-4(3H)-one trifluoroacetate]",< 1
16,"Cc1cccc2c(=O)[nH]c(CSC3CCN(Cc4ccc(C#N)cc4)CC3)nc12 [Example 141, 4-((4-(((8-Methyl-4-oxo-3,4-dihydroquinazolin-2-yl)methyl)thio)piperidin-1-yl)methyl)benzonitrile trifluoroacetate]",1 to 10
17,"Cc1cccc2c(=O)[nH]c(CSC3CCN(Cc4cc[nH]n4)CC3)nc12 [Example 142, 2-(((1-((1H-Pyrazol-3-yl)methyl)piperidin-4-yl)thio)methyl)-8-methylquinazolin-4(3H)-one trifluoroacetate]",< 1
18,"Cc1cccc2c(=O)[nH]c(CSC3CCN(Cc4nn(C)c5ccccc45)CC3)nc12 [Example 143, 8-Methyl-2-(((1-((1-methyl-1H-indazol-3-yl)methyl)piperidin-4-yl)thio)methyl)quinazolin-4(3H)-one trifluoroacetate]",1 to 10
19,"Cc1nn(C)cc1CN1CCC(SCc2nc3c(C)cccc3c(=O)[nH]2)CC1 [Example 144, 2-(((1-((1,3-Dimethyl-1H-pyrazol-4-yl)methyl)piperidin-4-yl)thio)methyl)-8-methylquinazolin-4(3H)-one trifluoroacetate]",1 to 10
